Reference: patent US20070128217A1 (priority 2003, published 2007)

Tests used:
[1] = system: antibodies in sera from SARS patients (sera 1a, 1b, 2, 6, 37, 62, London, SARS-yellow, SARS-green); format: binding, human; design: Binding of serum 6 to linear peptides of protein X1 of SARS-CoV Urbani / Binding of serum 37 to linear peptides of protein X1 of SARS-CoV Urbani / Binding of serum 6 to looped/cyclic peptide (PEPSCAN-ELISA) / Binding of serum 37 to looped/cyclic peptide (PEPSCAN-ELISA) / Binding of serum 37 to looped/cyclic peptides of protein X1 of SARS-CoV Urbani / Binding of serum 6 to linear peptides of protein X2 / Binding of serum 37 to linear peptides of protein X2 / Binding of serum 37 to looped/cyclic peptides of protein X2 of SARS-CoV Urbani / Binding of serum 6 to linear peptides of protein M of SARS-CoV Urbani / Binding of serum 37 to linear peptides of protein M of SARS-CoV Urbani / Binding of serum 6 to looped/cyclic peptides of protein M of SARS-CoV Urbani / Binding of serum 37 to looped/cyclic peptides of protein M of SARS-CoV Urbani / Binding of serum 6 to linear peptides of protein X3 of SARS-CoV Urbani / Binding of serum 37 to linear peptides of protein X3 of SARS-CoV Urbani / Binding of serum 37 to looped/cyclic peptides of protein X3 of SARS-CoV Urbani / Binding of serum 6 to linear peptides of protein X4 of SARS-CoV Urbani / Binding of serum 37 to linear peptides of protein X4 of SARS-CoV Urbani / Binding of serum 37 to looped/cyclic peptides of protein X4 of SARS-CoV Urbani / Binding of serum 6 to linear peptides of protein X5 of SARS-CoV Urbani / Binding of serum 37 to linear peptides of protein X5 of SARS-CoV Urbani / Binding of serum 37 to looped/cyclic peptides of protein X5 of SARS-CoV Urbani / Binding of serum 6 to linear peptides of protein N of SARS-CoV Urbani / Binding of serum 37 to linear peptides of protein N of SARS-CoV Urbani / Binding of serum 6 to linear peptide (PEPSCAN-ELISA) / Binding of serum 1a to looped/cyclic peptides of protein N of SARS-CoV Urbani / Binding of serum 1b to looped/cyclic peptides of protein N of SARS-CoV Urbani / Binding of serum 2 to looped/cyclic peptides of protein N of SARS-CoV Urbani / Binding of serum 6 to looped/cyclic peptides of protein N of SARS-CoV Urbani / Binding of serum 37 to looped/cyclic peptides of protein N of SARS-CoV Urbani / Binding of serum 62 to looped/cyclic peptides of protein N of SARS-CoV Urbani / Binding of serum London to looped/cyclic peptides of protein N of SARS-CoV Urbani / Binding of serum SARS-green to looped/cyclic peptides of protein N of SARS-CoV Urbani: unit not given here
[2] = system: control sera (pooled serum of ten healthy LUMC hospital workers; commercial negative donor pooled serum from the Dutch bloodbank); format: binding, human; design: Binding of Control serum LUMC to linear peptides / Binding of Control serum Blood-bank to linear peptides / Binding of Control serum LUMC to looped peptides / Binding of Control Serum Blood-Bank to Looped peptides / Binding of Control serum LUMC to linear peptides of the protein M of SARS-CoV Urbani / Binding of Control serum Blood-bank to linear peptides of the protein M of SARS-CoV Urbani / Binding of Control serum LUMC to looped peptides of the protein M of SARS-CoV Urbani / Binding of Control Serum Blood-Bank to Looped peptides of the protein M of SARS-CoV Urbani: unit not given here
[3] = system: rabbit serum obtained by immunizing a rabbit with the SARS-CoV strain Frankfurt 1; format: binding; design: Binding of a rabbit serum to linear peptides / Binding of a rabbit serum to looped peptides / Rabbit serum linear peptides / Rabbit serum looped peptides / Binding of a rabbit serum to linear peptides of protein N of SARS-CoV Urbani (Rabbit serum linear peptides) / Binding of a rabbit serum to looped/cyclic peptides of protein N of SARS-CoV Urbani (Rabbit serum looped peptides): unit not given here

VILRIGTQVLKTMSL
Binding of serum 1a to linear peptides of protein X2 [1]: 0.6
Binding of serum 1a to looped/cyclic peptides of protein X2 of SARS-CoV Urbani [1]: 0.6
Binding of serum 1b to linear peptides of protein X2 [1]: 0.5
Binding of serum 1b to looped/cyclic peptides of protein X2 of SARS-CoV Urbani [1]: 0.6
Binding of serum 2 to linear peptides of protein X2 [1]: 0.5
Binding of serum 2 to looped/cyclic peptides of protein X2 of SARS-CoV Urbani [1]: 0.4
Binding of serum 6 to linear peptides of protein X2 [1]: 0.5
Binding of serum 6 to looped/cyclic peptides of protein X2 of SARS-CoV Urbani [1]: 0.5
Binding of serum 37 to linear peptides of protein X2 [1]: 0.6
Binding of serum 37 to looped/cyclic peptides of protein X2 of SARS-CoV Urbani [1]: 0.5
Binding of serum 62 to linear peptides of protein X2 [1]: 0.6
Binding of serum 62 to looped/cyclic peptides of protein X2 of SARS-CoV Urbani [1]: 0.7
Binding of serum London to linear peptides of protein X2 [1]: 0.4
Binding of serum London to looped/cyclic peptides of protein X2 of SARS-CoV Urbani [1]: 0.2
Binding of serum SARS-green to linear peptides of protein X2 [1]: 0.4
Binding of serum SARS-green to looped/cyclic peptides of protein X2 of SARS-CoV Urbani [1]: 0.3
Binding of serum SARS-yellow to linear peptides of protein X2 [1]: 0.4
Binding of serum SARS-yellow to looped/cyclic peptides of protein X2 of SARS-CoV Urbani [1]: 0.4
Binding of Control Serum Blood-Bank to Looped peptides [2]: 0.7
Binding of Control serum Blood-bank to linear peptides [2]: 0.8
Binding of Control serum LUMC to linear peptides [2]: 0.5
Binding of Control serum LUMC to looped peptides [2]: 0.7
Binding of a rabbit serum to linear peptides [3]: 0.3
Binding of a rabbit serum to looped peptides [3]: 0.5

RRLLACLCKHKKVST
Binding of serum 1a to looped/cyclic peptides of protein X2 of SARS-CoV Urbani [1]: 0.2
Binding of serum 1b to looped/cyclic peptides of protein X2 of SARS-CoV Urbani [1]: 0.1
Binding of serum 2 to looped/cyclic peptides of protein X2 of SARS-CoV Urbani [1]: 0.1
Binding of serum 6 to looped/cyclic peptides of protein X2 of SARS-CoV Urbani [1]: 0.2
Binding of serum 37 to looped/cyclic peptides of protein X2 of SARS-CoV Urbani [1]: 0.2
Binding of serum 62 to looped/cyclic peptides of protein X2 of SARS-CoV Urbani [1]: 0.4
Binding of serum London to looped/cyclic peptides of protein X2 of SARS-CoV Urbani [1]: 0.2
Binding of serum SARS-green to looped/cyclic peptides of protein X2 of SARS-CoV Urbani [1]: 0.2
Binding of serum SARS-yellow to looped/cyclic peptides of protein X2 of SARS-CoV Urbani [1]: 0.2
Recognition of the peptide by sera of SARS-CoV infected individuals, and form (linear, looped/cyclic) in which it is recognized [1]: recognized in linear form
Binding of Control Serum Blood-Bank to Looped peptides [2]: 0.2
Binding of Control serum Blood-bank to linear peptides [2]: 0.9
Binding of Control serum LUMC to linear peptides [2]: 0.7
Binding of Control serum LUMC to looped peptides [2]: 0.3
Binding of a rabbit serum to linear peptides [3]: 0.6
Binding of a rabbit serum to looped peptides [3]: 0.3

LESTQITTDTGIENA
Binding of serum 1a to linear peptides of protein X1 of SARS-CoV Urbani [1]: 0.6
Binding of serum 1a to looped/cyclic peptides of protein X1 of SARS-CoV Urbani [1]: 0.4
Binding of serum 1b to linear peptides of protein X1 of SARS-CoV Urbani [1]: 0.5
Binding of serum 1b to looped/cyclic peptides of protein X1 of SARS-CoV Urbani [1]: 0.3
Binding of serum 2 to linear peptides of protein X1 of SARS-CoV Urbani [1]: 0.4
Binding of serum 2 to looped/cyclic peptides of protein X1 of SARS-CoV Urbani [1]: 0.2
Binding of serum 6 to linear peptides of protein X1 of SARS-CoV Urbani [1]: 0.4
Binding of serum 6 to looped/cyclic peptides of protein X1 of SARS-CoV Urbani [1]: 0.2
Binding of serum 37 to linear peptides of protein X1 of SARS-CoV Urbani [1]: 0.5
Binding of serum 37 to looped/cyclic peptides of protein X1 of SARS-CoV Urbani [1]: 0.3
Binding of serum 62 to linear peptides of protein X1 of SARS-CoV Urbani [1]: 0.4
Binding of serum 62 to looped/cyclic peptides of protein X1 of SARS-CoV Urbani [1]: 0.4
Binding of serum London to linear peptides of protein X1 of SARS-CoV Urbani [1]: 0.2
Binding of serum London to looped/cyclic peptides of protein X1 of SARS-CoV Urbani [1]: 0.2
Binding of serum SARS-green to linear peptides of protein X1 of SARS-CoV Urbani [1]: 0.1
Binding of serum SARS-green to looped/cyclic peptides of protein X1 of SARS-CoV Urbani [1]: 0.2
Binding of serum SARS-yellow to linear peptides of protein X1 of SARS-CoV Urbani [1]: 0.2
Binding of serum SARS-yellow to looped/cyclic peptides of protein X1 of SARS-CoV Urbani [1]: 0.3
Binding of Control Serum Blood-Bank to Looped peptides [2]: 0.4
Binding of Control serum Blood-bank to linear peptides [2]: 0.3
Binding of Control serum LUMC to linear peptides [2]: 0.4
Binding of Control serum LUMC to looped peptides [2]: 0.4
Binding of a rabbit serum to linear peptides [3]: 0.1
Binding of a rabbit serum to looped peptides [3]: 0.5

TSCELYHYQECVRGT
Binding of serum 1a to linear peptides of protein X4 of SARS-CoV Urbani [1]: 0.7
Binding of serum 1a to looped/cyclic peptides of protein X4 of SARS-CoV Urbani [1]: 0.9
Binding of serum 1b to linear peptides of protein X4 of SARS-CoV Urbani [1]: 0.6
Binding of serum 1b to looped/cyclic peptides of protein X4 of SARS-CoV Urbani [1]: 0.9
Binding of serum 2 to linear peptides of protein X4 of SARS-CoV Urbani [1]: 0.3
Binding of serum 2 to looped/cyclic peptides of protein X4 of SARS-CoV Urbani [1]: 0.7
Binding of serum 6 to linear peptides of protein X4 of SARS-CoV Urbani [1]: 0.7
Binding of serum 6 to looped/cyclic peptides of protein X4 of SARS-CoV Urbani [1]: 0.9
Binding of serum 37 to linear peptides of protein X4 of SARS-CoV Urbani [1]: 0.7
Binding of serum 37 to looped/cyclic peptides of protein X4 of SARS-CoV Urbani [1]: 0.7
Binding of serum 62 to linear peptides of protein X4 of SARS-CoV Urbani [1]: 0.8
Binding of serum 62 to looped/cyclic peptides of protein X4 of SARS-CoV Urbani [1]: 0.7
Binding of serum London to linear peptides of protein X4 of SARS-CoV Urbani [1]: 0.7
Binding of serum London to looped/cyclic peptides of protein X4 of SARS-CoV Urbani [1]: 0.4
Binding of serum SARS-green to linear peptides of protein X4 of SARS-CoV Urbani [1]: 0.5
Binding of serum SARS-green to looped/cyclic peptides of protein X4 of SARS-CoV Urbani [1]: 0.7
Binding of serum SARS-yellow to linear peptides of protein X4 of SARS-CoV Urbani [1]: 0.3
Binding of serum SARS-yellow to looped/cyclic peptides of protein X4 of SARS-CoV Urbani [1]: 0.4
Binding of Control Serum Blood-Bank to Looped peptides [2]: 0.8
Binding of Control serum Blood-bank to linear peptides [2]: 0.6
Binding of Control serum LUMC to linear peptides [2]: 0.6
Binding of Control serum LUMC to looped peptides [2]: 0.8
Rabbit serum linear peptides [3]: 0.4
Rabbit serum looped peptides [3]: 0.2

FLFLAWIMLLQFAYS
Binding of serum 1a to linear peptides of protein M of SARS-CoV Urbani [1]: 0.7
Binding of serum 1a to looped/cyclic peptides of protein M of SARS-CoV Urbani [1]: 0.8
Binding of serum 1b to linear peptides of protein M of SARS-CoV Urbani [1]: 0.6
Binding of serum 1b to looped/cyclic peptides of protein M of SARS-CoV Urbani [1]: 0.7
Binding of serum 2 to linear peptides of protein M of SARS-CoV Urbani [1]: 0.4
Binding of serum 2 to looped/cyclic peptides of protein M of SARS-CoV Urbani [1]: 0.6
Binding of serum 6 to linear peptides of protein M of SARS-CoV Urbani [1]: 0.4
Binding of serum 6 to looped/cyclic peptides of protein M of SARS-CoV Urbani [1]: 0.9
Binding of serum 37 to linear peptides of protein M of SARS-CoV Urbani [1]: 0.4
Binding of serum 37 to looped/cyclic peptides of protein M of SARS-CoV Urbani [1]: 0.7
Binding of serum 62 to linear peptides of protein M of SARS-CoV Urbani [1]: 0.4
Binding of serum 62 to looped/cyclic peptides of protein M of SARS-CoV Urbani [1]: 0.8
Binding of serum London to linear peptides of protein M of SARS-CoV Urbani [1]: 0.3
Binding of serum London to looped/cyclic peptides of protein M of SARS-CoV Urbani [1]: 0.3
Binding of serum SARS-green to linear peptides of protein M of SARS-CoV Urbani [1]: 0.4
Binding of serum SARS-green to looped/cyclic peptides of protein M of SARS-CoV Urbani [1]: 0.3
Binding of serum SARS-yellow to linear peptides of protein M of SARS-CoV Urbani [1]: 0.2
Binding of serum SARS-yellow to looped/cyclic peptides of protein M of SARS-CoV Urbani [1]: 0.4
Binding of Control Serum Blood-Bank to Looped peptides of the protein M of SARS-CoV Urbani [2]: 0.8
Binding of Control serum Blood-bank to linear peptides of the protein M of SARS-CoV Urbani [2]: 0.5
Binding of Control serum LUMC to linear peptides of the protein M of SARS-CoV Urbani [2]: 0.5
Binding of Control serum LUMC to looped peptides of the protein M of SARS-CoV Urbani [2]: 0.7
Rabbit serum linear peptides [3]: 0.2
Rabbit serum looped peptides [3]: 0.3
